Legend:
[1] = molecular target: Serine/threonine-protein kinase Nek7 (Homo sapiens) (UniProt Q8TDX7); assay: Selectivity interaction (Kinase panel (DSF assay)) EUB0001559a NEK7
[2] = molecular target: T1, Tyrosine-protein kinase JAK3 (Homo sapiens) (UniProt P52333); assay: Selectivity interaction (KinomeScan (DiscoverX)) EUB0000618a JAK3; conditions: at 10 µM
T1 sequence (whole entry): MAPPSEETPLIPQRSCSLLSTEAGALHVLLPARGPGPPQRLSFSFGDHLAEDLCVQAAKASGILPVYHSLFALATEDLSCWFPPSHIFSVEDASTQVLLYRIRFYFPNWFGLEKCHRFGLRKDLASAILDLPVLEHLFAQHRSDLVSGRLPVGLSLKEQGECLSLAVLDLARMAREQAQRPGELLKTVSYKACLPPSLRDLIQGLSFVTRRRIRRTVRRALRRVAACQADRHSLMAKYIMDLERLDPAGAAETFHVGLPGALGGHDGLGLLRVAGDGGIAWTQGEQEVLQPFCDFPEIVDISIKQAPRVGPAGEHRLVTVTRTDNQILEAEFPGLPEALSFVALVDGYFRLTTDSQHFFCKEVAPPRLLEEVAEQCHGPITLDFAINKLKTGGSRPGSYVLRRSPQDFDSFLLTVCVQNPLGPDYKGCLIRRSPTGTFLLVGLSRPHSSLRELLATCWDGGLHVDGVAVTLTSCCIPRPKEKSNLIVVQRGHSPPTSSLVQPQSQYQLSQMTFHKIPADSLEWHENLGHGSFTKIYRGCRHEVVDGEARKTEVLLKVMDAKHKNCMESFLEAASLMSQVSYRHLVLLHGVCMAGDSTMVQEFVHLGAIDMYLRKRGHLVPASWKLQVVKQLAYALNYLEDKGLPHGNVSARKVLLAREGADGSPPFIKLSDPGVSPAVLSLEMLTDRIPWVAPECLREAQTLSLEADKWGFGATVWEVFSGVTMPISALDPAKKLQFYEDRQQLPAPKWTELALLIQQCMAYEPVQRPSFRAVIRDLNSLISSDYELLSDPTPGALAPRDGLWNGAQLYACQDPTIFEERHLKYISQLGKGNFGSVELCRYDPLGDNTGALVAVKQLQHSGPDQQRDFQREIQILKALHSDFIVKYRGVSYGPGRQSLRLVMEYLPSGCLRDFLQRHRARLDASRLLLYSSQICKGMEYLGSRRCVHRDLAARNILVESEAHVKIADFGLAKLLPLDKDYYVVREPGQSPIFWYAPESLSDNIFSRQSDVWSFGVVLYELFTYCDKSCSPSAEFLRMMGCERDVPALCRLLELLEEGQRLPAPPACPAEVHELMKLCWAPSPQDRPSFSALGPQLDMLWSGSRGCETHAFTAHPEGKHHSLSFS

[3] = molecular target: T2, cGMP-dependent protein kinase 2 (Homo sapiens) (UniProt Q13237); assay: Selectivity interaction (SelectScreen profiling (Invitrogen)) EUB0000607a PRKG2; conditions: at 2 µM
T2 sequence (whole entry): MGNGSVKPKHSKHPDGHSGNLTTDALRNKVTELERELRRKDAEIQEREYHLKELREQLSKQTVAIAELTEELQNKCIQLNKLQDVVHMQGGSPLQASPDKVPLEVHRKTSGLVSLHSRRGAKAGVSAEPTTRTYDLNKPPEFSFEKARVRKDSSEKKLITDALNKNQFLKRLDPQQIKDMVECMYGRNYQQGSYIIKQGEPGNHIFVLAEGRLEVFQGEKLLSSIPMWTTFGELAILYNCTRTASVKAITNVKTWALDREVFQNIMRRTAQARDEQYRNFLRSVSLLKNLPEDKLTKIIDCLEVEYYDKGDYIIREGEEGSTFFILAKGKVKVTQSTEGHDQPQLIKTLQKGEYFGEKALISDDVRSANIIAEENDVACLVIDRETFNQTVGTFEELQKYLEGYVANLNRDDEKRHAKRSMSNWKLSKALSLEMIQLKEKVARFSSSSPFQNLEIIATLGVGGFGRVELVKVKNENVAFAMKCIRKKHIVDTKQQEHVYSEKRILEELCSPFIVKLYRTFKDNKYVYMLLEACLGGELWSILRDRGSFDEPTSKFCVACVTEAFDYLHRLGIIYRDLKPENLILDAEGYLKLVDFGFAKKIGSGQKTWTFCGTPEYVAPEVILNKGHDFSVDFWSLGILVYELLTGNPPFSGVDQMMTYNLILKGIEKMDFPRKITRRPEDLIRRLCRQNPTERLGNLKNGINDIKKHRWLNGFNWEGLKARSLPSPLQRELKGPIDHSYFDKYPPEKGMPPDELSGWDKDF

[4] = molecular target: T3, Serine/threonine-protein kinase RIO3 (Homo sapiens) (UniProt O14730); assay: Selectivity interaction (KinomeScan (DiscoverX)) EUB0001619a RIOK3; conditions: at 1 µM
T3 sequence (whole entry): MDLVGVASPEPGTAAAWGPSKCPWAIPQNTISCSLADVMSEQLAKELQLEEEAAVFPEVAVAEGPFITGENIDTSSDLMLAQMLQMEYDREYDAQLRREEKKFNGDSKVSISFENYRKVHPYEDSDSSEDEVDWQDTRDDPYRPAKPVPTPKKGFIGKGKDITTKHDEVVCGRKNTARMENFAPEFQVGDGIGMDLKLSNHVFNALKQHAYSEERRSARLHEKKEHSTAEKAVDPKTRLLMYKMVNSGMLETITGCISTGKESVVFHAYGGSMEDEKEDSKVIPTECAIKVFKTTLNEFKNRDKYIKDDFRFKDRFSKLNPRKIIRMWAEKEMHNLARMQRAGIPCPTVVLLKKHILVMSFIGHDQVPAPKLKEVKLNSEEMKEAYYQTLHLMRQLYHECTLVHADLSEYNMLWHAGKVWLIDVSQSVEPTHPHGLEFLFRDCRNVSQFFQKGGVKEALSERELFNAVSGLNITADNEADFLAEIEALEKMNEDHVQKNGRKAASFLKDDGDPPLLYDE

[5] = molecular target: T1, Tyrosine-protein kinase JAK3 (Homo sapiens); assay: Selectivity interaction (KinomeScan (DiscoverX)) EUB0000045b JAK3
[6] = molecular target: G protein-coupled receptor kinase 5 (Homo sapiens, UniProt P34947); assay: Selectivity interaction (Upstate Kinase Profiler service (Millipore)) EUB0000056c GRK5; conditions: at 1 µM
Chain of G protein-coupled receptor kinase 5 (P34947 whole entry, looked up): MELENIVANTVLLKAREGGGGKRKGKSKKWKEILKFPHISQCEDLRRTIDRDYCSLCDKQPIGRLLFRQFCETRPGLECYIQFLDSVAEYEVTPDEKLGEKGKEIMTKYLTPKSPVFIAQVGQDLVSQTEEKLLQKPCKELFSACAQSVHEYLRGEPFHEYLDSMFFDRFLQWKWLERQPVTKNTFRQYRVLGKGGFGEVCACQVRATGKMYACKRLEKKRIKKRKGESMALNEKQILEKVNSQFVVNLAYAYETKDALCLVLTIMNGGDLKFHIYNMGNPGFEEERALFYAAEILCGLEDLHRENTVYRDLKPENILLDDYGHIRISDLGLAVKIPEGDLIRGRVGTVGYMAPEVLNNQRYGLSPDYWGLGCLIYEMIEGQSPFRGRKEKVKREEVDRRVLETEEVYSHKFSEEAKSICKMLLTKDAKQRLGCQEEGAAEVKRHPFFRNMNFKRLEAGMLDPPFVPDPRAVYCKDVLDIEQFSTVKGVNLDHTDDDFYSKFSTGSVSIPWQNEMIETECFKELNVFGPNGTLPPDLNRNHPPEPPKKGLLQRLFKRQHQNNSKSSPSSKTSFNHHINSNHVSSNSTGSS

[7] = molecular target: Serine/threonine-protein kinase MARK2 (Homo sapiens) (UniProt Q7KZI7); assay: Selectivity interaction (ActivX KiNativ screen (kinase selectivity in THP-1 cell lysates)) EUB0000639a MARK2; assay type: subcellular; conditions: lysate, at 0.04 µM
Chain of Serine/threonine-protein kinase MARK2 (Homo sapiens) (Q7KZI7 whole entry): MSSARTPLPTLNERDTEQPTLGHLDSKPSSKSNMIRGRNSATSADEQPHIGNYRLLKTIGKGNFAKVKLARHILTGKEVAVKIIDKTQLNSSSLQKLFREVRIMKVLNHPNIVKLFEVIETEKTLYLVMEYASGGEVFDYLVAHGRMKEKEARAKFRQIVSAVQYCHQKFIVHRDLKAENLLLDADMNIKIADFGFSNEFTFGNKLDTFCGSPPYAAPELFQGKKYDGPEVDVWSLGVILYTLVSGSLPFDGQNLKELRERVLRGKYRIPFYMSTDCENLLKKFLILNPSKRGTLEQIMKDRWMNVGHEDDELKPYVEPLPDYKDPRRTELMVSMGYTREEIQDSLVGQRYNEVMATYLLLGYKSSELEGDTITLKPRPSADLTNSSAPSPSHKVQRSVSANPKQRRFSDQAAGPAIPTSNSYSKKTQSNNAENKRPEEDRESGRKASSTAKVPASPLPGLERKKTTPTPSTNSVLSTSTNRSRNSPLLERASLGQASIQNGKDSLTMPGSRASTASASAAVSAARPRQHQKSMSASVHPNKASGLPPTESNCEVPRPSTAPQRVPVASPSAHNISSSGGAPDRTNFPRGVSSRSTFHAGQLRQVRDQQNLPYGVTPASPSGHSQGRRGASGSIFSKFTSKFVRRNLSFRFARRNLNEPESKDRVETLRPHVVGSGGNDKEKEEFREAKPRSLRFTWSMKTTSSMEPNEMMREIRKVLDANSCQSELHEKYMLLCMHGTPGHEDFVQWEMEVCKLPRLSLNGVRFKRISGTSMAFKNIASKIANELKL

[8] = molecular target: Vascular endothelial growth factor receptor 1 (Homo sapiens) (UniProt P17948); assay: Selectivity interaction (KinomeScan (DiscoverX)) EUB0000229b FLT1; conditions: at 10 µM
Chain of Vascular endothelial growth factor receptor 1 (Homo sapiens) (P17948 whole entry): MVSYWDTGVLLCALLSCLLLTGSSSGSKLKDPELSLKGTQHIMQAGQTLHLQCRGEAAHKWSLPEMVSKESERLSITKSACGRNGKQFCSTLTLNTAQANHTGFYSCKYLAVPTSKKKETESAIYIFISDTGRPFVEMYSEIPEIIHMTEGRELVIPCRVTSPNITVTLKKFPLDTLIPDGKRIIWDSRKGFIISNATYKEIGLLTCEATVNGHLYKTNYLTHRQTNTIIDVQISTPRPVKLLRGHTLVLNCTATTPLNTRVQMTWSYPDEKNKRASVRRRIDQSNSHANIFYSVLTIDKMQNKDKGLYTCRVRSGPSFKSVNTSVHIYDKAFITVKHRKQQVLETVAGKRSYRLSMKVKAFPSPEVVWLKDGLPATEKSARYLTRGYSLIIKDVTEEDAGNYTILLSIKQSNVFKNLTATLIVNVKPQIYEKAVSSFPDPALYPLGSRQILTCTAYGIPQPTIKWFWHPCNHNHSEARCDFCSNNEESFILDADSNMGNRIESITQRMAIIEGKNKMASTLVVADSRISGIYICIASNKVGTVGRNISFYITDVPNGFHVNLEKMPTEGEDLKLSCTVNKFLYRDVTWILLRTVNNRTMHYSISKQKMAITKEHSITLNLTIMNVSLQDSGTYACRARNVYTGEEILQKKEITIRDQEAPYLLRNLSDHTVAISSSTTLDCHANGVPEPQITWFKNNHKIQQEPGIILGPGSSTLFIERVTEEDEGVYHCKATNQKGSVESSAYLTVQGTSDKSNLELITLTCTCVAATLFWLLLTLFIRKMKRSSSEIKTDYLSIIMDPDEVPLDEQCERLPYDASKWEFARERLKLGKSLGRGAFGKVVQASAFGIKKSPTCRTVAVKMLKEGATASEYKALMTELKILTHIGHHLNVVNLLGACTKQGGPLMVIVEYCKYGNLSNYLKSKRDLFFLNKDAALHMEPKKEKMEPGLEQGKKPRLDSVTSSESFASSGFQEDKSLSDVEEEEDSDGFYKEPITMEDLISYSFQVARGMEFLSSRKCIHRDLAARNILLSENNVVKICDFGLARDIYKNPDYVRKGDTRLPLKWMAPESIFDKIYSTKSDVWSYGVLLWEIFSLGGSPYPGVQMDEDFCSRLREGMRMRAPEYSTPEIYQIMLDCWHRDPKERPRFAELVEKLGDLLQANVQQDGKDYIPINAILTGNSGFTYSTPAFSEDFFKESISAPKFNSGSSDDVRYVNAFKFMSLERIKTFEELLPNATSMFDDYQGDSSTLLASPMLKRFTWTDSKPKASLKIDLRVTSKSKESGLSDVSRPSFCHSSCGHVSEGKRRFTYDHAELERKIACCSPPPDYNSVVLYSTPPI

[9] = molecular target: Serine/threonine-protein kinase PAK 1 (Homo sapiens) (UniProt Q13153); assay: Selectivity interaction (KinomeScan (DiscoverX)) EUB0001049a PAK1; conditions: at 1 µM
Chain of Serine/threonine-protein kinase PAK 1 (Homo sapiens) (Q13153 whole entry): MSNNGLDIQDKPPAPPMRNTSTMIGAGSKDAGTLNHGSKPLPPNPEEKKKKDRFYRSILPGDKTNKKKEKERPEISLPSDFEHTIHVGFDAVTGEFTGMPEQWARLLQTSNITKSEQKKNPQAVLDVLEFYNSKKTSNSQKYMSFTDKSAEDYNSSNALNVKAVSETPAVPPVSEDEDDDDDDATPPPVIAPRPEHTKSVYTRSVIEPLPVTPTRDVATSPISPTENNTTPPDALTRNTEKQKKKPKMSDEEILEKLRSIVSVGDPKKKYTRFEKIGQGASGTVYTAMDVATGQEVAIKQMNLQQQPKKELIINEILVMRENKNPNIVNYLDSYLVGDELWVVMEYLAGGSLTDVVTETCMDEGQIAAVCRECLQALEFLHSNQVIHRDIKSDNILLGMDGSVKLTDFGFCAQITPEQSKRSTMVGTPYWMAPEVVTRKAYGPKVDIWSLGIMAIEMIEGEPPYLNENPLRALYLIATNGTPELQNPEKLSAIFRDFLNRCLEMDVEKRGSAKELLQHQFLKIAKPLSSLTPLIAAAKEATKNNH

Chain of Serine/threonine-protein kinase Nek7 (Homo sapiens) (Q8TDX7 whole entry, looked up): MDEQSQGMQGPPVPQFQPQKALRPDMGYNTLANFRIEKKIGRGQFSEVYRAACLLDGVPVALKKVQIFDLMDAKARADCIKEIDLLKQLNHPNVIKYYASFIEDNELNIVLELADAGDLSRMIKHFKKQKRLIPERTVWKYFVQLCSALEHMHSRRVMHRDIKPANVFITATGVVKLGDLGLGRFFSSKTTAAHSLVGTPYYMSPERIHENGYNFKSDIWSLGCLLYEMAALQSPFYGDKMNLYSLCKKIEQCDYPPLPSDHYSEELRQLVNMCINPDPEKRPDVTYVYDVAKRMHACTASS

`CN(C(=O)c1cnn2cccnc12)c1cc2c(cc1N1CCOCC1)C(=O)N(C[C@@H](F)C(C)(C)O)C2` showed a dTM [1] of 0.5 K.
`O[C@H]1CC[C@H](Nc2ncc3nc(Nc4c(F)cc(F)cc4F)n([C@H]4CCOC4)c3n2)CC1` showed a % of control [2] of 90%.
`CNC(=O)Nc1ccc(-c2nc(N3CC4CCC(C3)O4)c3cnn(C4CCC5(CC4)OCCO5)c3n2)cc1` showed a % of inhibition [3] of 9%.
`N#Cc1cccc(-c2c[nH]c3ncnc(N4CCOCC4)c23)c1` was tested, and the % of control [4] was 4.8%.
In the case of `C=CC(=O)Nc1cc(-n2c(=O)ccc3cnc4ccc(-c5ccc(NS(C)(=O)=O)cc5)cc4c32)ccc1C`, the % of control ([5]; at 1 µM) is reported as 6.6% and the % of control ([5]; at 10 µM) is reported as 0.6%.
With `Cc1ccc(-c2ccc3c(ccc4sc5c(c43)NC[C@@H](C)NC5=O)n2)cn1` the % of inhibition [6] was -23%.
Compound `CC[C@@H]1[C@H](F)C(=O)N[C@@H]1COc1nccc2cc(C(N)=O)c(OC)cc12` [ZIMLOVISERTIB] has a % of inhibition [7] of -13.3%.
For `COc1cc(N(C)c2ccnc3ccc(C(F)(F)F)cc23)cc(OC)c1OC`, the % binding [8] was 100%.
`COc1cc(Nc2nc(C)cc(-c3cnn4nc(OC)ccc34)n2)cc(C(F)(F)F)c1` showed a % of control [9] of 86%.
